Results from patent publication EP0293130A2, “Dimers of parathyroid hormone antagonists” (Merck & Co., Inc., priority 1987, dated 1988).

Tested on: adenylate cyclase
Details: adenylate cyclase assay
Source text: In the adenylate cyclase assay of Caporale, L. et al, Peptides: Structure and Function, Proc. 9th Am. Pept. Symp. p.

Substance: ([Tyr³⁴,Cys³⁹]PTH(21-39)NH₂)₂
- increase in antagonist potency over its monomeric derivative (dimer versus its monomeric derivative): 25 fold
- IC50 (read-out: IC₅₀ (antagonist potency), antagonism of PTH): 20 µM
